Results published in patent US20250368628A1, “METHODS AND COMPOUNDS FOR MODULATING INHERITED GENETIC DISEASES” (Design Therapeutics, Inc., priority 2022, published 2025).
Where two headings read alike, the source gives them in different places.

Columns and labels:
[1] = test system: Myotonic Dystrophy 1 affected patient fibroblasts (Coriel GM04602; 1600 CTG repeats); assay: DM1 foci reduction assay (EC50 assay; CAG10-Cy3 FISH, foci per nucleus); assay type: cell-based; settings: Homo sapiens, Fibroblast
Method in brief: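 Foci per nucleus counted by 20× imaging of 4 areas per well, after overnight FISH with 5 nM CAG10-Cy3 and DAPI staining of fixed, permeabilized cells. DM1 fibroblasts (GM04602, 1600 CTG) were dosed 48 h at 37 °C, 8 points, 3-fold dilutions, 3 μM top concentration.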

[2] = test system: F35T cells; assay: Foci reduction in FECD (CAG10-Cy3 FISH, foci per nucleus); assay type: cell-based
Method in brief: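 Foci per nucleus were counted by imaging after overnight CAG10-Cy3 FISH at 37 °C (30% formamide, 2×SSC) with DAPI counterstain, on PFA-fixed, ethanol-permeabilized F35T cells. The cells, seeded at 5000 per well in supplemented Opti-MEM, had received 8-point compound dilutions for 48 h at 37 °C.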

[3] = DM1 patient fibroblasts, 48 h treatment, foci per nucleus, read-out: DM1 EC50, 48 h
[4] = F35T cells, 48 h treatment, foci per nucleus, read-out: FECD EC50, 48 h
[5] = DM1 patient fibroblasts, foci per nucleus, 48 h treatment, read-out: DM1 EC50, 48 h
[6] = F35T cells, foci per nucleus, 48 h treatment, read-out: FECD EC50, 48 h

Structure (SMILES) | EC50 [1, 3] [nM] | EC50 [2, 4] [nM] | further results
Cn1cc(NC(=O)c2nc(NC(=O)CCNC(=O)c3cc(NC(=O)c4nccn4C)cn3C)cn2C)cc1C(=O)NCCCC(=O)Nc1cn(C)c(C(=O)NCCC(=O)Nc2cc(C(=O)Nc3cn(C)c(C(=O)NCCC(=O)NCCCN4CCCCC4)n3)n(C)c2)n1 [Compound B-38] | 100 to 500 | > 1000 | 
CCCNC(=O)c1cc(NC(=O)CCNC(=O)c2nc(NC(=O)[C@H](N)CCNC(=O)c3cc(NC(=O)c4nc(NC(=O)CCNC(=O)c5cc(NC(=O)c6nccn6C)cn5C)cn4C)cn3C)cn2C)cn1C [Compound B-366] | > 1000 | > 1000 | 
CN(CCCNC(=O)c1cccc(C(=O)OC(C)(C)C)c1)CCCNC(=O)c1nc(NC(=O)c2cc(NC(=O)CCNC(=O)c3nc(NC(=O)CCCNC(=O)c4cc(NC(=O)c5nc(NC(=O)CCNC(=O)c6cc(NC(=O)c7nccn7C)cn6C)cn5C)cn4CCCCCCN=[N+]=[N-])cn3C)cn2C)cn1C [Compound B-365] | < 100 | 100 to 500 | 
CCCNC(=O)CCNC(=O)c1nc(NC(=O)c2cc(NC(=O)CCNC(=O)c3nc(NC(=O)CCNC(=O)c4cc(NC(=O)c5nc(NC(=O)CCNC(=O)c6cc(NC(=O)c7nccn7C)cn6C)cn5C)cn4C)cn3C)cn2C)cn1C [Compound B-315] | > 1000 | > 1000 | 
CC(Nc1cc(C(=O)NCCC(=O)Nc2cn(C)c(C(=O)Nc3cc(C(=O)NCCCC(=O)Nc4cn(C)c(C(=O)Nc5cc(C(=O)NCCC(=O)Nc6cn(C)c(C(=O)NCCC(=O)NCCOCCOCCOCCOCCOCCNC(=O)[C@H](CO)NC(=O)OC(C)(C)C)n6)n(C)c5)n4)n(C)c3)n2)n(C)c1)c1nccn1C (stereo partly shown) [Compound B-110] | 500 to 1000 | 100 to 500 | 
Cn1cc(NC(=O)c2nccn2C)cc1C(=O)NCCC(=O)Nc1cn(C)c(C(=O)Nc2cc(C(=O)NCC[C@@H](N)C(=O)Nc3cn(C)c(C(=O)NCCC(=O)Nc4cc(C(=O)Nc5cn(C)c(C(=O)NCCC(=O)N6CCC(C#CC#CC7CCNCC7)CC6)n5)n(C)c4)n3)n(C)c2)n1 [Compound B-407] | 100 to 500 | 500 to 1000 | 
Cn1cc(NC(=O)c2nc(NC(=O)CCNC(=O)c3cc(NC(=O)c4nccn4C)cn3C)cn2C)cc1C(=O)NCCCC(=O)Nc1cn(C)c(C(=O)NCCC(=O)Nc2cc(C(=O)Nc3cn(C)c(C(=O)NCCC(=O)NCCCCC(=O)N[C@@H](CCCNC(=N)N)C(=O)N[C@@H](CCCNC(=N)N)C(=O)NCCCCN=[N+]=[N-])n3)n(C)c2)n1 [Compound B-154] | > 1000 | 100 to 500 | 
Cn1cc(NC(=O)c2nc(NC(=O)CCNC(=O)c3cc(NC(=O)c4nccn4C)cn3C)cn2C)cc1C(=O)NCCCC(=O)Nc1cn(C)c(C(=O)NCCC(=O)Nc2cc(C(=O)Nc3cn(C)c(C(=O)NCCC(=O)N4CC(c5cnc(CNC(=O)c6ccc(C(C)(C)C)cc6)[nH]5)C4)n3)n(C)c2)n1 [Compound B-71] | 100 to 500 | 100 to 500 | 
COCCOCCOCCOCCOCCOCCOc1ccc(C#CCNCCCNC(=O)c2nc(NC(=O)c3cc(NC(=O)CCNC(=O)c4nc(NC(=O)CCCNC(=O)c5cc(NC(=O)c6nc(NC(=O)CCNC(=O)c7cc(NC(=O)c8nccn8C)cn7C)cn6C)cn5C)cn4C)cn3C)cn2C)cc1 [Compound B-412] |  |  | EC50 [1, 5]: > 1000 nM; EC50 [2, 6]: < 100 nM
CCCNC(=O)CCNC(=O)c1nc(NC(=O)c2cc(NC(=O)CCNC(=O)c3nc(NC(=O)C[C@@H](N)CNC(=O)c4cc(NC(=O)c5nc(NC(=O)CCNC(=O)c6cc(NC(=O)c7nccn7C)cn6C)cn5C)cn4C)cn3C)cn2C)cn1C [Compound B-415] |  |  | EC50 [1, 5]: 100 to 500 nM; EC50 [2, 6]: 100 to 500 nM
CC(C)CCC(=O)N1CCC(C#CC#CC2CCN(CCOCCOCCOCCNC(=O)CCNC(=O)c3nc(NC(=O)c4cc(NC(=O)CCNC(=O)c5nc(NC(=O)CCCNC(=O)c6cc(NC(=O)c7nc(NC(=O)CCNC(=O)c8cc(NC(=O)c9nccn9C)cn8C)cn7C)cn6C)cn5C)cn4C)cn3C)CC2)CC1 [Compound B-169] | 100 to 500 | 100 to 500 | 
CCCNC(=O)CCNC(=O)c1nc(NC(=O)c2cc(NC(=O)CCNC(=O)c3nc(NC(=O)CCCNC(=O)c4cc(NC(=O)c5nc(NC(=O)CCNC(=O)c6cc(NC(=O)c7nccn7C)cn6C)cn5C)cn4CCCN=[N+]=[N-])cn3C)cn2C)cn1C [Compound B-271] | < 100 | < 100 | 
CCCNC(=O)c1cc(NC(=O)c2nc(NC(=O)CCNC(=O)c3cc(NC(=O)c4nc(NC(=O)CCCNC(=O)c5cc(NC(=O)c6nc(NC(=O)CCNC(=O)c7cc(NC(=O)c8nccn8C)cn7C)cn6C)cn5C)cn4C)cn3C)cn2C)cn1C [Compound B-9] | > 1000 | < 100 | 
CCCNC(=O)CCNC(=O)c1nc(NC(=O)c2cc(NC(=O)CCNC(=O)c3nc(NC(=O)CCCNC(=O)c4cc(NC(=O)c5nc(NC(=O)CCNC(=O)c6cc(NC(=O)c7nccn7C)cn6C)cn5C)cn4CCOCCNC(C)=O)cn3C)cn2C)cn1C [Compound B-298] | 100 to 500 | 100 to 500 | 
CC(C)CCNC(=O)CCNC(=O)c1nc(NC(=O)c2cc(NC(=O)CCNC(=O)c3nc(NC(=O)CCCNC(=O)c4cc(NC(=O)c5nc(NC(=O)CCNC(=O)c6cc(NC(=O)c7nccn7C)cn6C)cn5C)cn4C)cn3C)cn2C)cn1C [Compound B-179] | 100 to 500 | < 100 | 
CN(C)C(=NCCCNC(=O)c1nc(NC(=O)c2cc(NC(=O)CCNC(=O)c3nc(NC(=O)CCCNC(=O)c4cc(NC(=O)c5nc(NC(=O)CCNC(=O)c6cc(NC(=O)c7nccn7C)cn6C)cn5C)cn4C)cn3C)cn2C)cn1C)N(C)C [Compound B-206] | 100 to 500 | 100 to 500 | 
Cn1cc(NC(=O)c2nc(NC(=O)CCNC(=O)c3cc(NC(=O)c4nccn4C)cn3C)cn2C)cc1C(=O)NCCCC(=O)Nc1cn(C)c(C(=O)NCCC(=O)Nc2cc(C(=O)Nc3cn(C)c(C(=O)NCCC(=O)N4CC(c5cnc(CN(CCCC(=O)O)CCCC(=O)O)[nH]5)C4)n3)n(C)c2)n1 [Compound B-371] | > 1000 | > 1000 | 
CNC(=O)c1nc(NC(=O)c2cc(NC(=O)CCNC(=O)c3nc(NC(=O)CCCNC(=O)c4cc(NC(=O)c5nc(NC(=O)CCNC(=O)c6cc(NC(=O)c7nccn7C)cn6C)cn5C)cn4C)cn3C)cn2C)cn1C [Compound B-310] | < 100 | < 100 | 
CC(C)C(=O)N1CCC(C#CC#CC2CCN(CCOCCOCCOCCNC(=O)CCNC(=O)c3nc(NC(=O)c4cc(NC(=O)CCNC(=O)c5nc(NC(=O)CCCNC(=O)c6cc(NC(=O)c7nc(NC(=O)CCNC(=O)c8cc(NC(=O)c9nccn9C)cn8C)cn7C)cn6C)cn5C)cn4C)cn3C)CC2)CC1 [Compound B-122] | 100 to 500 | 100 to 500 | 
Cn1cc(NC(=O)c2nc(NC(=O)CCNC(=O)c3cc(NC(=O)c4nccn4C)cn3C)cn2C)cc1C(=O)NCCCC(=O)Nc1cn(C)c(C(=O)NCCC(=O)Nc2cc(C(=O)Nc3cn(C)c(C(=O)NCCC(=O)NC4COP(=O)(Oc5ccccc5Cl)OC4)n3)n(C)c2)n1 (stereo not shown) [Compound B-391] |  |  | EC50 ([1]; 48 h, read-out: DM1 EC50, 48 h (nM)): > 1000 nM; EC50 ([2]; 48 h, read-out: FECD EC50, 48 h (nM)): > 1000 nM
COCCOCCOCCOCCN(CCOCCOCCOCCOC)C(=O)CCCCn1cc(NC(=O)c2nc(NC(=O)CCNC(=O)c3cc(NC(=O)c4nccn4C)cn3C)cn2C)cc1C(=O)NCCCC(=O)Nc1cn(C)c(C(=O)NCCC(=O)Nc2cc(C(=O)Nc3cn(C)c(C(=O)NCCC(=O)NCCOCCOCCOCCN4CCC(C#CC#CC5CCN(C(=O)OC(C)(C)C)CC5)CC4)n3)n(C)c2)n1 [Compound B-228] | 100 to 500 | 100 to 500 | 
CN(C)CCOCCNC(=O)CCNC(=O)c1nc(NC(=O)c2cc(NC(=O)CCNC(=O)c3nc(NC(=O)CCCNC(=O)c4cc(NC(=O)c5nc(NC(=O)CCNC(=O)c6cc(NC(=O)c7nccn7C)cn6C)cn5C)cn4C)cn3C)cn2C)cn1C [Compound B-42] | 100 to 500 | 100 to 500 | 
COC(=O)c1cccc(NCCCCNC(=O)c2nc(NC(=O)c3cc(NC(=O)CCNC(=O)c4nc(NC(=O)CCCNC(=O)c5cc(NC(=O)c6nc(NC(=O)CCNC(=O)c7cc(NC(=O)c8nccn8C)cn7C)cn6C)cn5C)cn4C)cn3C)cn2C)c1 [Compound B-343] | < 100 | < 100 | 
Cn1cc(NC(=O)c2nc(NC(=O)CCNC(=O)c3cc(NC(=O)c4nccn4C)cn3C)cn2C)cc1C(=O)NCCCC(=O)Nc1cn(C)c(C(=O)NCCC(=O)Nc2cc(C(=O)Nc3cn(C)c(C(=O)NCCC(=O)NCC#CC#Cc4ccccc4)n3)n(C)c2)n1 [Compound B-134] | < 100 | < 100 | 
CCCNC(=O)CCNC(=O)c1nc(NC(=O)c2cc(NC(=O)CCNC(=O)c3nc(NC(=O)CCCNC(=O)c4cc(NC(=O)c5nc(NC(=O)CCNC(=O)c6cc(NC(=O)c7nccn7C)cn6C)cn5C)cn4CCCCCN)cn3C)cn2C)cn1C [Compound B-286] | 100 to 500 | < 100 | 
Cn1cc(NC(=O)c2nc(NC(=O)CCNC(=O)c3cc(NC(=O)c4nccn4C)cn3C)cn2C)cc1C(=O)NCCCC(=O)Nc1cn(C)c(C(=O)NCCC(=O)Nc2cc(C(=O)Nc3cn(C)c(C(=O)NCCCNC(CO)CO)n3)n(C)c2)n1 [Compound B-335] | 100 to 500 | 100 to 500 | 
